These results are taken from patent US7279497B2, “Benzopyran derivatives substituted with secondary amines including imidazole, their preparation and pharmaceutical compositions containing them” (Korea Research Institute of Chemical Technology, priority 2002, dated 2007).

SMILES strings stand for the structures. Several values for one entry are separate records, joined by “and”; a condition that tells them apart may be missing. Identical values can stand only once.

The subject of assay [1] is HUVECs (Human umbilical vein endothelial cells). Put plainly: Inhibitory effects on HUVEC tube formation.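 Note: from minus no inhibition up to plus-plus-plus complete inhibition versus vehicle.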 The format is cell-based. Summed up: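 HUVECs within passage 5 were plated on bFGF-reduced polymerized Matrigel and incubated with or without compound. Tube formation assessed as changes in cell morphology by phase-contrast microscopy and photography.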
For a further assay, the system named is isolated rat hearts. Briefly: Cardioprotective activity in isolated ischemic rat heart (Langendorff). Particulars: 10 μM. Here is the method: In order to determine whether the compounds of the chemical formula 1 are protective for ischemic hearts in vitro, experiments determining the anti-ischemic effects of the compounds on isolated rat hearts were conducted as follows.
For all in vitro studies, isolated rat hearts were used according to the published methods after some modification [HJ Ring, Arzneim.-Forsch./Drug Res. 39 (II), 1535 (1989): T. Krzeminski, et al., J. Pharmacological Methods, 25, 95, (1991)]
Male Sprague-Dawley rats weighing 300-450 g were anesthetized with sodium pentobarbital (100 mg/kg, i.p.). The tail vein was injected with heparin (1,000 U/kg) and then the trachea was intubated. While rats were mechanically ventilated with a rodent ventilator (Model 7025, Ugobasile, Italy), their hearts were perfused in situ with oxygenated modified Krebs-Henseleit bicarbonate buffer (described herein) by retrograde aortic cannulation. The hearts were then excised and moved to a Langendorff apparatus (H.S.E., Germany), where they were perfused with oxygenated modified Krebs-Henseleit bicarbonate buffer containing (in mM) NaCl 116, NaHCO3 24.9, KCl 4.7, MgSO4 1.1, KH2PO4 1.17, CaCl2 2.52, glucose 8.32 and pyruvate 2.0 at a constant perfusion pressure (85 mm Hg). A latex balloon filled with solvent (ethanol:water=1:1 (v/v)) and attached to a metal cannula was placed in the left ventricle through pulmonary vein and connected to a Isotec pressure transducer (H.S.E., Germany) for measurement of left ventricular pressure (LVP). The hearts were allowed to equilibrate for 15 min, at which time left ventricular end-diastolic pressure (EDP) was adjusted to 5 mm Hg and this balloon volume was maintained throughout the experiment. Then, baseline contractile function, heart rate (HR), and coronary flow (CF) (extracorporeal electromagnetic flow probe, Narco Bio-System, U.S.A.) were measured. Cardiac contractile function was calculated by subtracting LVEDP from LV peak systolic pressure (LVSP), yielding developed pressure (LVDP). Double product (DP), another important parameter for assessing cardiac performance, was calculated by multiplying HR by LVDP. Throughout the experiment, all these parameters were measured, and calculated before and 10 min after pretreatment with each compound and 30 min after the onset of reperfusion with buffer. Data on reperfusion DP were further expressed as the percentage to pretreatment DP.
After stabilization for 15 min, the hearts were pretreated for 10 min with respective drugs (10 μM, 0.04% DMSO) or vehicle (0.04% DMSO) before onset of global ischemia; test agents were administered directly into the oxygenator of the Langendorff apparatus immediately above the aortic root in a retrograde fashion as solutions in the perfusate. We then rendered the hearts globally ischemic by completely shutting off the perfusate for 30 min. Severity of ischemia was determined as the time to contracture (TTC, min) during global ischemia in which the first 5 mmHg increase in EDP was observed. Then, the hearts were reperfused and, 30 min later, contractile function (LVDP, DP) and cumulative reperfusion lactate dehydrogenase (LDH) release were measured. LDH was measured as a sensitive index for loss of cell viability with a kit supplied by Boerhinger Mannheim based on the technique of Wroblewski and LaDue [F. Wroblewski and J S. La Due, Proc Soc Exp Biol Med 90, 210, (1955)].

On to `COC(OC)[C@@]1(C)Oc2ccc([N+](=O)[O-])cc2[C@@H](N(Cc2ncc[nH]2)c2ccc(Cl)cc2)[C@@H]1O` [Example 1, (2S,3S,4R)-3,4-dihydro-2-dimethoxymethyl-3-hydroxy-2-methyl-6-nitro-4-[N-(4-chlorophenyl)-N-(1H-imidazol-2-ylmethyl)amino]-2H-1-benzopyran], for which the Tube formation entry in assay [1] (10 μM) is “+”; in assay [1] (50 μM), “+”; in assay [1] (100 μM), “++”. Moreover, the “LDVP × HR (%)” value in the assay on isolated rat hearts (30 min reperfusion, % of pretreatment DP) was 55.7%. For the same compound, the “TTC (time to contracture)” value with isolated rat hearts (global ischemia) was 28 min and 28.0 min. The same compound came in with an EDP in the assay with isolated rat hearts (reperfusion) of 24.0 MmHg. In addition, the “LDH (reperfusion release)” value in the assay with isolated rat hearts (reperfusion) was 10.7 U/g.
